Source: ChEMBL document CHEMBL4138191, “Organic arsenicals target thioredoxin reductase followed by oxidative stress and mitochondrial dysfunction resulting in apoptosis” (Eur J Med Chem, 2018)

Assays:
HL-60 [1] = test: Induction of mitochondrial membrane potential loss in human HL60 cells after 24 hrs by JC-1 staining-based flow cytometry (reference value: 28.6%); type: functional
HL-60 [2] = test: Induction of mitochondrial membrane potential loss in human HL60 cells after 24 hrs by JC-1 staining-based flow cytometry (reference value: 24.3%); type: functional

N#CC(C#N)=NNc1cccc(Cl)c1 [CARBONYL CYANIDE M-CHLOROPHENYLHYDRAZONE]
Activity (HL-60 [1]): 62.4%
Activity (HL-60 [2]): 85.8%
